From US10174037B2, “Dihydropyrazolopyrimidinone compounds as PDE2 inhibitors” (Merck Sharp & Dohme Corp., priority 2015, dated 2019)

Experiments:
Rhesus PDE2A3 = Rhesus PDE2A3 (Macaca mulatta, UniProt B3VTJ2); assay: PDE2 fluorescence polarization (IMAP FP) assay, rhesus PDE2A3; type: biochemical, rhesus macaque; conditions: Lab B, read-out: Rhesus PDE2 Ki (nM) Lab B
human PDE2A1 = human PDE2A1 (Homo sapiens (Human), UniProt O00408); assay: PDE selectivity IMAP FP assay, human PDE2A1; type: biochemical; conditions: Human PDE2; Lab B; read-out: Human PDE2 Ki (nM) Lab B
Chain of human PDE2A1 (O00408 other isoform, or with tags, fused parts or gaps): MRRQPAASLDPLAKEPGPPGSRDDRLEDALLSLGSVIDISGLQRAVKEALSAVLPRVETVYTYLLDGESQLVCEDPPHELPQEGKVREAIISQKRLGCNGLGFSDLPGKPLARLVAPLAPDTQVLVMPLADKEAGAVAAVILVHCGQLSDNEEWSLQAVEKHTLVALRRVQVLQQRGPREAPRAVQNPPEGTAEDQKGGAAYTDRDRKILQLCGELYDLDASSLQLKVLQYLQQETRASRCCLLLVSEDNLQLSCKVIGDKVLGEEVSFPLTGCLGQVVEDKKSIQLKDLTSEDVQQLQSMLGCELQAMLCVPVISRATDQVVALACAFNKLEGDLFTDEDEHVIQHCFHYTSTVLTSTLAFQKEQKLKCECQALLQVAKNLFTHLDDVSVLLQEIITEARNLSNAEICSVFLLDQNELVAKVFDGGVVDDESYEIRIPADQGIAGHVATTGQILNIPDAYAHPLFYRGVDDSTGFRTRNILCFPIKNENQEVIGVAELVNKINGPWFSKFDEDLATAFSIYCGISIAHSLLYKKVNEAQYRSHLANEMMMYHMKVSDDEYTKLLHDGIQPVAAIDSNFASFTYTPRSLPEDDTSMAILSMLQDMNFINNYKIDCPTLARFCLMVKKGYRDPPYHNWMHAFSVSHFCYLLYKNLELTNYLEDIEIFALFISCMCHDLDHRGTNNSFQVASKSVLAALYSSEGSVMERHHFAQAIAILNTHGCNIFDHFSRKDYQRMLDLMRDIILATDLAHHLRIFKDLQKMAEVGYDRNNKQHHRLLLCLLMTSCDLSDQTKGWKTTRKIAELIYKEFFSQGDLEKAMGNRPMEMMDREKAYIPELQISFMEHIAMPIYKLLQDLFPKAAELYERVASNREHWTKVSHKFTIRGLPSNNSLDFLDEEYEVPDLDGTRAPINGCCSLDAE
Summary of the method: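 IMAP fluorescence polarization assay; PDE2 substrate 50 nM FAM-cAMP containing 1000 nM cGMP, enzyme diluted for 20% substrate conversion, in 10 mM Tris HCl pH 7.2, 10 mM MgCl2, 1 mM DTT. Reaction 60 min at room temperature, stopped with IMAP binding solution; polarization read after 1 h. Ki reported.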

Chain of Rhesus PDE2A3 (B3VTJ2 1-941): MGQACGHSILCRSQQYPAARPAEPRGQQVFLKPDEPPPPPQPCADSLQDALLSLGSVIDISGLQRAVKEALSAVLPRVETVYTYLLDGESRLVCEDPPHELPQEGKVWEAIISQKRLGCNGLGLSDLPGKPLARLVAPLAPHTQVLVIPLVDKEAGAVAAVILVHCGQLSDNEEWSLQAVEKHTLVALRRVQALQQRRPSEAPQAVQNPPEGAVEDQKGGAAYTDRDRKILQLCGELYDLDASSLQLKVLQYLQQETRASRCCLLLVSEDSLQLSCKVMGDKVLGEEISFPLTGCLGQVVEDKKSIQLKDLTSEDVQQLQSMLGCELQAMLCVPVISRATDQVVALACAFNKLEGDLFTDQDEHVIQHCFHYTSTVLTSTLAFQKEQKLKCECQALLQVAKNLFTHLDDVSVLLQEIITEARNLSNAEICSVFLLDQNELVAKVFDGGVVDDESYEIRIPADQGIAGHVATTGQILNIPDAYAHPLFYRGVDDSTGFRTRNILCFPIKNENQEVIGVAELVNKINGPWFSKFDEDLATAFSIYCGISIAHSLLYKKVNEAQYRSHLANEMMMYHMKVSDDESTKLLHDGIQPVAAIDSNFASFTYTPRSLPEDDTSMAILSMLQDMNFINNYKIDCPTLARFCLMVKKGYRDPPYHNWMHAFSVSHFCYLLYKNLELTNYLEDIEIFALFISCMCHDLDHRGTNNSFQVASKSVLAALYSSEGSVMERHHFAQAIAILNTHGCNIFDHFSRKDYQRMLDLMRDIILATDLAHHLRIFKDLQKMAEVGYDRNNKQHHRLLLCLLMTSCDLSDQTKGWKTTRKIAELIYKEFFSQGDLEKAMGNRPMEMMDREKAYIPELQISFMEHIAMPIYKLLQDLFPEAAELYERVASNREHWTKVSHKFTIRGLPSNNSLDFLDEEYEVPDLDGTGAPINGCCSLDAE

Row | Ki (Rhesus PDE2A3) [nM] | Ki (human PDE2A1) [nM] | Compound
1 | 0.14 | 0.11 | CC(C)c1ccc(C(C(C)C)n2nc(CO)c3c(=O)[nH]c(N(C)C)nc32)cc1 (single isomer, unassigned) [Example 78, (R)- or (S)-6-(Dimethylamino)-3-(hydroxymethyl)-1-(1-(4-isopropylphenyl)-2-methylpropyl)-1H-pyrazolo[3,4-d]pyrimidin-4(5H)-one]
2 | 1 | 0.68 | CC(c1ccc(OC(F)(F)F)c(F)c1)n1nc(CO)c2c(=O)[nH]c(N(C)C)nc21 (single isomer, unassigned) [Example 84, (R)- or (S)-6-(Dimethylamino)-1-(1-(3-fluoro-4-(trifluoromethoxy)phenyl)ethyl)-3-(hydroxymethyl)-1H-pyrazolo[3,4-d]pyrimidin-4(5H)-one]
3 | 0.3 | 0.24 | CC(c1ccc(OC(F)(F)F)c(F)c1)n1nc(CO)c2c(=O)[nH]c(N(C)C)nc21 (single isomer, unassigned) [Example 85, (S)- or (R)-6-(Dimethylamino)-1-(1-(3-fluoro-4-(trifluoromethoxy)phenyl)ethyl)-3-(hydroxymethyl)-1H-pyrazolo[3,4-d]pyrimidin-4(5H)-one]
4 | 0.91 | 0.57 | CN(C)c1nc2c(c(CO)nn2C(c2ccc(CC(F)(F)F)cc2)C2CC2)c(=O)[nH]1 (single isomer, unassigned) [Example 86, (R)- or (S)-1-(Cyclopropyl(4-(2,2,2-trifluoroethyl)phenyl)methyl)-6-(dimethylamino)-3-(hydroxymethyl)-1H-pyrazolo[3,4-d]pyrimidin-4(5H)-one]
5 | 2.3 | 1.1 | CC(C)C(c1ccc(C(F)F)cc1)n1nc(CO)c2c(=O)[nH]c(N(C)C)nc21 (single isomer, unassigned) [Example 90, (R)- or (S)-1-(1-(4-(Difluoromethyl)phenyl)-2-methylpropyl)-6-(dimethylamino)-3-(hydroxymethyl)-1H-pyrazolo[3,4-d]pyrimidin-4(5H)-one]
6 | 0.55 | 0.42 | CCC(c1ccc(C(F)F)cc1)n1nc(CO)c2c(=O)[nH]c(N(C)C)nc21 (single isomer, unassigned) [Example 93, (S)- or (R)-1-(1-(4-(Difluoromethyl)phenyl)propyl)-6-(dimethylamino)-3-(hydroxymethyl)-1H-pyrazolo[3,4-d]pyrimidin-4(5H)-one]
7 | 0.15 | 0.14 | CN(C)c1nc2c(c(CO)nn2C(c2ccc(CC(F)(F)F)c(F)c2)C2CC2)c(=O)[nH]1 (single isomer, unassigned) [Example 94, (R)- or (S)-1-(Cyclopropyl(3-fluoro-4-(2,2,2-trifluoroethyl)phenyl)methyl)-6-(dimethylamino)-3-(hydroxymethyl)-1H-pyrazolo[3,4-d]pyrimidin-4(5H)-one]
8 | 6.2 | 3.6 | CC(c1ccc(C(C)(F)F)c(F)c1)n1nc(CO)c2c(=O)[nH]c(N(C)C)nc21 (single isomer, unassigned) [Example 106, (R)- or (S)-1-(1-(4-(1,1-Difluoroethyl)-3-fluorophenyl)ethyl)-6-(dimethylamino)-3-(hydroxymethyl)-1H-pyrazolo[3,4-d]pyrimidin-4(5H)-one]
9 | 0.12 | 0.12 | CC(c1ccc(C(C)(F)F)c(F)c1)n1nc(CO)c2c(=O)[nH]c(N(C)C)nc21 (single isomer, unassigned) [Example 107, (S)- or (R)-1-(1-(4-(1,1-Difluoroethyl)-3-fluorophenyl)ethyl)-6-(dimethylamino)-3-(hydroxymethyl)-1H-pyrazolo[3,4-d]pyrimidin-4(5H)-one]

Continued, molecule first:

Row | Compound | Ki (Rhesus PDE2A3) [nM] | Ki (human PDE2A1) [nM]
10 | CN(C)c1nc2c(c(CO)nn2C(c2ccc(C(F)(F)F)cc2)C2CC2)c(=O)[nH]1 (single isomer, unassigned) [Example 75, (S)- or (R)-1-(Cyclopropyl(4-(trifluoromethyl)phenyl)methyl)-6-(dimethylamino)-3-(hydroxymethyl)-1H-pyrazolo[3,4-d]pyrimidin-4(5H)-one] | 0.79 | 1.1
11 | CC(C)c1ccc(C(C2CC2)n2nc(CO)c3c(=O)[nH]c(N(C)C)nc32)cc1 (single isomer, unassigned) [Example 76, (R)- or (S)-1-(Cyclopropyl(4-isopropylphenyl)methyl)-6-(dimethylamino)-3-(hydroxymethyl)-1H-pyrazolo[3,4-d]pyrimidin-4(5H)-one] | 0.21 | 0.22
12 | CC(C)c1ccc(C(C2CC2)n2nc(CO)c3c(=O)[nH]c(N(C)C)nc32)cc1 (single isomer, unassigned) [Example 77, (S)- or (R)-1-(Cyclopropyl(4-isopropxlphenyl)methyl)-6-(dimethylamino)-3-(hydroxymethyl)-1H-pyrazolo[3,4-d]pyrimidin-4(5H)-one] | 0.084 | 0.069
13 | CC(C)c1ccc(C(C(C)C)n2nc(CO)c3c(=O)[nH]c(N(C)C)nc32)cc1 (single isomer, unassigned) [Example 79, (S)- or (R)-6-(Dimethylamino)-3-(hydroxymethyl)-1-(1-(4-isopropylphenyl)-2-methylpropyl)-1H-pyrazolo[3,4-d]pyrimidin-4(5H)-one] | 0.054 | 0.044
14 | CC(c1ccc(C(F)(F)F)cc1F)n1nc(CO)c2c(=O)[nH]c(N(C)C)nc21 (single isomer, unassigned) [Example 81, (S)- or (R)-6-(Dimethylamino)-1-(1-(2-fluoro-4-(trifluorornethyl)phenyl)ethyl)-3-(hyrdroxymethyl)-1H-pyrazolo[3,4-d]pyrimidin-4(5H)-one] | 0.25 | 0.29
15 | CC(c1ccc(C(F)F)cc1)n1nc(CO)c2c(=O)[nH]c(N(C)C)nc21 (single isomer, unassigned) [Example 83, (S)- or (R)-1-(1-(4-(Difluoromethyl)phenyl)ethyl)-6-(dimethylamino)-3-(hydroxymethyl)-1H-pyrazolo[3,4-d]pyrimidin-4(5H)-one] | 1.1 | 0.86
16 | CN(C)c1nc2c(c(CO)nn2C(c2ccc(CC(F)(F)F)cc2)C2CC2)c(=O)[nH]1 (single isomer, unassigned) [Example 87, (S)- or (R)-1-(Cyclopropyl(4-(2,2,2-trifluoroethyl)phenyl)methyl)-6-(dimethylainino)-3-(hydroxymethyl)-1H-pyrazolo[3,4-d]pyrimidin-4(5H)-one] | 0.4 | 0.38
17 | CC(C)C(c1ccc(C(F)F)cc1)n1nc(CO)c2c(=O)[nH]c(N(C)C)nc21 (single isomer, unassigned) [Example 91, (S)- or (R)-1-(1-(4-(Difluoromethyl)phenyl)-2-methylpropyl)-6-(dimethylamino)-3-(hydroxymethyl)-1H-pyrazolo[3,4-d]pyrimidin-4(5H)-one] | 0.18 | 0.18
18 | CN(C)c1nc2c(c(CO)nn2C(c2ccc(CC(F)(F)F)c(F)c2)C2CC2)c(=O)[nH]1 (single isomer, unassigned) [Example 95, (S)- or (R)-1-(Cyclopropyl(3-fluoro-4-(2,2,2-trifluoroethyl)phenyl)methyl)-6-(dimethylamino)-3-(hydroxymethyl)-1H-pyrazolo[3,4-d]pyrimidin-4(5H)-one] | 0.44 | 0.39
19 | CCC(c1ccc(CC(F)(F)F)c(F)c1)n1nc(CO)c2c(=O)[nH]c(N(C)C)nc21 (single isomer, unassigned) [Example 97, (S)- or (R)-6-(Dimethylamino)-1-(1-(3-fluoro-4-(2,2,2-trifluoroethyl)phenyl)propyl)-3-(hydroxymethyl)-1H-pyrazolo[3,4-d]pyrimidin-4(5H)-one] | 0.11 | 0.09
20 | CC(c1ccc(CC(F)(F)F)c(F)c1)n1nc(CO)c2c(=O)[nH]c(N(C)C)nc21 (single isomer, unassigned) [Example 100, (R)- or (S)-6-(Dimethylamino)-1-(1-(3-fluoro-4-(2,2,2-trifluoroethyl)phenyl)ethyl)-3-(hydroxymethyl)-1H-pyrazolo[3,4-d]pyrimidin-4(5H)-one] | 1.1 | 0.88
21 | CC(c1ccc(CC(F)(F)F)c(F)c1)n1nc(CO)c2c(=O)[nH]c(N(C)C)nc21 (single isomer, unassigned) [Example 101, (S)- or (R)-6-(Dimethylamino)-1-(1-(3-fluoro-4-(2,2,2-trifluoroethyl)phenyl)ethyl)-3-(hydroxymethyl)-1H-pyrazolo[3,4-d]pyrimidin-4(5H)-one] | 0.35 | 0.29
22 | CC(c1ccc(C(C)(F)F)cc1)n1nc(CO)c2c(=O)[nH]c(N(C)C)nc21 (single isomer, unassigned) [Example 103, (S)- or (R)-1-(1-(4-(1,1-Difluoroethyl)phenyl)ethyl)-6-(dimethylamino)-3-(hydroxymethyl)-1H-pyrazolo[3,4-d]pyrimidin-4(5H)-one] | 0.3 | 0.28
23 | CC(c1ccc(C(F)F)c(F)c1)n1nc(CO)c2c(=O)[nH]c(N(C)C)nc21 (single isomer, unassigned) [Example 105, (S)- or (R)-1-(1-(4-(Difluoromethyl)-3-fluorophenyl)ethyl)-6-(dimethylamino)-3-(hydroxymethyl)-1H-pyrazolo[3,4-d]pyrimidin-4(5H)-one] | 1.6 | 1.1
24 | CC(c1ccc(C(C)(F)F)cc1F)n1nc(CO)c2c(=O)[nH]c(N(C)C)nc21 (single isomer, unassigned) [Example 108, (R)- or (S)-1-(1-(4-(1,1-DiHuoroethyl)-2-fluoroplienyl)ethyl)-6-(dimethylamino)-3-(hydroxymethyl)-1H-pyrazolo[3,4-d]pyrimidin-4(5H)-one] | 0.18 | 0.23
